Values quoted from earlier work as cited in patent US5272138A, “Naturally occurring gangliosides containing de-N-acetyl-sialic acid and their applications as modifiers of cell physiology” (The Biomembrane Institute, priority 1990, dated 1993).

Details: compared with lysolecithin, Taketomi and Kawamura 1970

For `CCCCCCCCCCCCCC=CC(O)C(N)COC1OC(CO)C(OC2OC(CO)C(O)C(OC3(C(=O)O)CC(O)C(N)C(C(O)C(O)CO)O3)C2O)C(O)C1O` (stereo not shown), the hemolytic activity is listed as “twice that of lysolecithin”.
